From patent publication EP1935887A1, “Heterocyclic substituted carbonyl derivatives and their use as dopamine D3 receptor ligands” (Aventis Pharmaceuticals Inc., priority 2001, dated 2002)

Columns and labels:
[1] = target: T1, CLONED HUMAN ALPHA-1A ADRENERGIC RECEPTORS (α1a) (Homo sapiens, UniProt P35348); assay: [3H]Prazosin binding to cloned human alpha-1A adrenergic receptors expressed in CHO cells
T1 construct: expressed in transfected cells; host or cells: CHO cells, G418-resistant clone #7, vector pcDNA3; membranes
T1 sequence (P35348 1-466): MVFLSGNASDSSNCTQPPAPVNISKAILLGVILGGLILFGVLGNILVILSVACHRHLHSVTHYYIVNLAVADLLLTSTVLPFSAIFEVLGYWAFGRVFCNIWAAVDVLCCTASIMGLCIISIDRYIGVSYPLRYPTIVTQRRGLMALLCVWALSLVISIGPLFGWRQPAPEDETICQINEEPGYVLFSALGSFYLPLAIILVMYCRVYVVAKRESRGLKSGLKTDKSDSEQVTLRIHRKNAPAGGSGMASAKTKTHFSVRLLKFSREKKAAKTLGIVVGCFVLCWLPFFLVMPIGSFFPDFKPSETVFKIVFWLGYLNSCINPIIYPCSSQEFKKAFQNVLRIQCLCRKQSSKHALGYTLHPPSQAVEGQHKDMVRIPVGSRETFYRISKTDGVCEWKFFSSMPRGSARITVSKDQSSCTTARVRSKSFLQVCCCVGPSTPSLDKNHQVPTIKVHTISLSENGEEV
Excerpt: ^3H]PRAZOSIN BINDING TO CLONED HUMAN ALPHA-1A ADRENERGIC RECEPTORS (α1a) EXPRESSED IN CHINESE HAMSTER OVARY CELLS (CHO)
• purpose: This in vitro assay is designed as a screen to identify compounds displaying a affinity for the human α1a adrenoceptor subtype expressed in the membrane fragments of CHO cells. The assay measures the ability of the test compounds to displace [^3H] prazosin from α1a sites. The identification of multiple vascular α1-addrenoceptors (α1a, α1b, α1d) in vitro has provided impetus to define the role(s) of these subtypes in cardiovascular regulation in vivo (Vargas and Gorman, 1995). […] Therefore, the binding of compounds to α1a adrenergic receptors is believed to be a good measure of a compound's potential to cause orthostatic hypotension and sedation as side effects. Prazosin is a potent antagonist of the human α1a-adrenoceptor subtype, which has been cloned and is expressed in the membrane fragments of CHO cells. • hα1areceptor: The cloning of the human α1a cDNA was accomplished first by screening a human prostate cDNA library (Clontech), from which a portion of the coding region was obtained. This DNA fragment was then used to screen a human leukocyte genomic library (Clontech), and the rest of the coding sequence was obtained. Later these two fragments were spliced together. The entire coding sequence was then fully sequenced including matching PCR sequence with original genomic coding sequence, thus ensuring splice sites were joined correctly (Schwinn et al., 1995). Once sequenced, the gene was subcloned into the expression vector pcDNA3 (Invitrogen). Plasmid DNA was then used for transfection into CHO cells and G418 resistant clones were isolated. A clone expressing high levels of the hα1a receptor (as determined by mRNA and receptor binding data) was chosen and pharmacologically characterized. • Culture Media: Media Ingredients for Adherent α1a expressing CHO Culture: • A. HAM's F-12 (Cellgro) • B. 10% 0.2 micron filtered Fetal Bovine Serum (FBS)(Cellgro) • C. 1% 0.2 micron filtered Penicillin-Streptomycin (Cellgro) • D. G418 0.2 micron filtered (Geneticin 400µg/ml)(Cellgro) Cells are cultured using established methods and procedures in either 150x25mm culture plates (scale up to 100 plates) or a combination of these plates and 70 roller bottles. One culturing/harvest cycle typically requires 2 weeks and yields between 100-400mg protein. Plates or bottles are incubated at 37°C + 5% CO2. • Storage: Cells are harvested by mechanical scraping, washed using PBS, collected in 250ml Corning polypropylene centrifuge tubes, spun down (1500RPM) and resuspended in dH2O 10% DMSO (final volume per harvest is approximately 50ml). Protein determination is made using the Biorad DC Assay Kit. […] Bd. = 50µl 10µM phentolamine+50 µl [^3H]prazosin+100µl membrane Test Cpd. = 50µl compound + 50µl [^3H]prazosin + 100µl membrane Compounds to be evaluated are weighed out to yield a 10 mM stock solution in DMSO in a 24 well polystyrene plate. This is diluted to a 0.5 mM stock in dH2O. Serial dilutions in Buffer A are made from which 50 µl additions to the plate are made in duplicate in order to achieve the final concentrations desired. Typically, one 96 well plate is used to evaluate 11 compounds at 4 concentrations (10^-6-10^-9 M) in duplicate. Total binding and nonspecific binding are determined in quadruplicate. Usually one standard is run with each assay. [^3H]Prazosin is made up in Buffer A such that when 50 µl are added per well the final concentration is 1.0 nM in a final assay volume of 200 µl. The final concentration should be verified by running a sample in a scintillation counter prior to adding the [^3H]prazosin to the 96 well plate. Note: The radioactivity should be prepared just before the additions are made so that it is not allowed to sit on the bench for very long. […]

[2] = target: T2, Cloned Human Dopamine D3 Receptors (Homo sapiens, UniProt P35462); assay: [N-Methyl-3H]Spiroperidol binding to cloned human dopamine D3 receptors; settings: read-out: D3 Ki
T2 construct: expressed in transfected cells; membrane homogenate
Procedure, shortened: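 [N-methyl-3H]spiroperidol binding is run in Tris buffer, pH 7.7. Receptor source is membranes of a stably transfected, high-expressing CHO clone carrying the human D3 gene, kept at -80°C in 10% DMSO.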

T2 sequence (P35462 whole entry): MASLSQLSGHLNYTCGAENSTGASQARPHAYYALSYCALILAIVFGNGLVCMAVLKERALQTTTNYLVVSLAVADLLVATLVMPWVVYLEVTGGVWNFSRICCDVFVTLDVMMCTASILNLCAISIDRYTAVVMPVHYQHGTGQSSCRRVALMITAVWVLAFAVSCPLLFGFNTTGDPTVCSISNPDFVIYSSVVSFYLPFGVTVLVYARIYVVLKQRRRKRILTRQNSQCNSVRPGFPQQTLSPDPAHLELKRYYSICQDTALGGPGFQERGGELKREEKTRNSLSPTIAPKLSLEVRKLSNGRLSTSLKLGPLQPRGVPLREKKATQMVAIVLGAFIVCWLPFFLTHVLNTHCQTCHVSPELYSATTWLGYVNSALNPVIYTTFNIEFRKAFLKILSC

Row | SMILES | halpha1 % I h=human ([1]; @ 1 uM) [% Inh @ 1 uM] | further results
1 | CCOC(=O)[C@H]1CC[C@H](NC(=O)CCCN2CCN(c3csc4cc(C(F)(F)F)ccc34)CC2)CC1 [compound 826805] | 27.8 | 
2 | CCN(C(=O)CCCN1CCN(c2csc3cc(C(F)(F)F)ccc23)CC1)C1CCCCC1 [compound 826809] | 30.5 | 
3 | CC1(C)CCCN(C(=O)CCCN2CCN(c3csc4cc(C(F)(F)F)ccc34)CC2)C1 [compound 826817] | 44.4 | 
4 | O=C(CCCN1CCN(c2csc3cc(C(F)(F)F)ccc23)CC1)NC1CCCCC1 [compound 826821] |  | halpha1 % I h=human ([1]; @ 0.1 nM): 24% Inh @ 0.1 nM
5 | CC1CCCN(C(=O)CCCN2CCN(c3csc4cc(F)ccc34)CC2)C1 (stereo not drawn) [compound 826855] |  | Ki ([1]; human alpha-1 receptor, read-out: halpha1Ki (nM) h=human): 0.689 nM
6 | C[C@H]1CC[C@H](NC(=O)[C@@H]2C[C@H]2CN2CCC(c3csc4cc(C(F)(F)F)ccc34)CC2)CC1 [compound 834016] |  | Ki [2]: 1.63 nM
7 | COc1cccc2c(C3CCN(C[C@@H]4C[C@H]4C(=O)N[C@H]4CC[C@H](C)CC4)CC3)nn(C)c12 [compound 834054] |  | Ki [2]: 13.8 nM

Further lines, with some results ahead:

Row | halpha1 % I h=human ([1]; @ 1 uM) [% Inh @ 1 uM] | SMILES | further results
8 | 32.8 | C[C@H]1CC[C@H](NC(=O)CCCN2CCN(c3csc4cc(C(F)(F)F)ccc34)CC2)CC1 [compound 826804] | 
9 | 10.3 | CC[C@H]1CC[C@H](NC(=O)CCCN2CCN(c3csc4cc(C(F)(F)F)ccc34)CC2)CC1 [compound 826806] | 
